{"source": "patent US20230190680A1", "about": "“METHODS AND COMPOSITIONS FOR TREATING AN RNA VIRUS INDUCED DISEASE” (Golden Biotechnology Corporation, priority 2020, published 2023)", "key": {"HepG2.2.15 cells": {"system": "HepG2.2.15 cells", "assay": "MTT assay (cytotoxicity)", "assay_type": "cell-based, human", "method": "(§1) Cell Culture. HepG2.2.15 cell line was cultured in MEM medium, supplemented with 10% fetal bovine serum, penicillin (100 IU/ml; Gibco, USA), and streptomycin (100 ug/ml; Gibco, USA) in 5% CO2 incubator at 37° C. This is a cell line derived from human hepatoblastoma cell line HepG2 and characterized by having stable HBV expression. Qs5 is HBV-producing rat hepatoma cell lines.\nMTT assay. 1.25 ×10^5 cells/well were seeded onto 24-well plate. Cells were incubated with varying concentrations of G4 and 3TC (1, 5, 25, 50, 100 and 200 uM) for 72 hours. 1 mg/ml 3-(4, 5-dimethylthiazol-2-yl)-2, 5- diphenyltetrazolium- bromide (MTT) was added to each well and incubated for 2 hours at 37° C. to allow formation of the colored crystals. Medium was replaced with DMSO and plates were incubated for 15 minutes at room temperature with shaking to dissolve the crystals. The absorbance was measured by the microplate reader. The optical density was measured at 490 nm."}, "HBeAg": {"system": "HBeAg", "assay": "ELISA of HBeAg in HepG2.2.15 supernatants", "assay_type": "cell-based, HBV", "settings": "72 hours, FIG. 1A", "method": "as §1\n(§2) Lamivudine (3TC) and Adefovir dipivoxil (Adv) are marketed for HBV treatment as positive controls. Antroquinonol (G4) and Lamivudine (3TC) dissolved in dimethylsulfoxide (DMSO) only for stock solutions and diluted in culture medium. The final concentration of DMSO in cells is less 0.1%. Drugs treated with 2×10^4 cells in 96-well plate for 72 hours.\n(§3) The levels of HBsAg and HBeAg in HepG2.2.15 supernatants were measured using their commercial enzyme-linked immunosorbent assay (ELISA) kits following the manufacturer’s instructions.\n(§4) To examine the effect of Antroquinonol on HBV protein expression, including surface antigen (HBsAg) and e antigen (HBeAg), ELISA assay was used to quantify HBV replication. The study results have shown that Compound 1 (i.e., Antroquinonol) reduces HBeAg (see FIG. 1A) and HBsAg (see FIG. 1B) expression levels. Compound 1 in comparison with Lamivudine, has shown reduction in the expression levels of the two major HBV biomarkers, HBeAg and HBsAg by 50% and 40% respectively."}, "COL4A1": {"system": "COL4A1", "assay_type": "cell-based", "settings": "20 µM; DMSO 2.37-fold; FIG. 13B"}, "CD3": {"system": "CD3", "assay": "Local renal inflammation marker CD3 (FIG. 8)", "assay_type": "in vivo"}, "IL18": {"system": "IL18", "assay_type": "cell-based", "settings": "20 µM, DMSO 1.36-fold"}, "IL6": {"system": "IL6", "assay_type": "cell-based", "settings": "10 µM; DMSO 47.81-fold; FIG. 12B"}, "MCP-1": {"system": "MCP-1", "assay": "Local renal inflammation marker MCP-1 (FIG. 8)", "assay_type": "in vivo"}, "NF-kB": {"system": "NF-kB", "assay": "Renal inflammation, NF-kB activation model (FIG. 7): NF-kB expression", "assay_type": "in vivo"}, "HCV RNA": {"system": "HCV RNA", "assay": "HCV RNA activity (FIG. 2B)", "assay_type": "cell-based"}, "IL-6": {"system": "IL-6", "assay": "Local renal inflammation marker IL-6 (FIG. 8)", "assay_type": "in vivo"}, "SARS-CoV-2": {"system": "SARS-CoV-2", "assay_type": "cell-based", "settings": "Vero E6 cells, MOI = 0.1, 24 h, FIG. 10"}, "TGFB1": {"system": "TGFB1", "assay_type": "cell-based", "settings": "20 µM, DMSO 2.59-fold"}, "HBsAg": {"system": "HBsAg", "assay": "ELISA of HBsAg in HepG2.2.15 supernatants", "assay_type": "cell-based, HBV", "settings": "72 hours, FIG. 1B", "method": "as §1, §2, §3, §4"}, "Nrf-2": {"system": "Nrf-2", "assay": "Renal inflammation, NF-kB activation model (FIG. 7): nuclear Nrf-2 expression", "assay_type": "in vivo"}, "CXCL10": {"system": "CXCL10", "assay_type": "cell-based", "settings": "DMSO 9.04 fold"}}, "note": "Like-named read-outs stand apart in the source and are kept apart here.", "data": [{"smiles": "COC1=C(OC)C(O)C(C/C=C(\\C)CC/C=C(\\C)CCC=C(C)C)C(C)C1=O", "note": "(stereo not drawn) [Compound 1, 4-hydroxy-2,3-dimethoxy-6-methyl-5-(3,7,11-trimethyldodeca-2,6,10-trienyl)cyclohex-2-enone]", "values": [{"measurement": "cytotoxicity by MTT assay", "setting": "HepG2.2.15 cells; over 25 uM", "result": "cytotoxicity effects"}, {"measurement": "cytotoxicity by MTT assay", "setting": "HepG2.2.15 cells; up to exposure to 5 uM", "result": "No apparent cytotoxicity"}, {"measurement": "reduction in the expression level of HBeAg", "setting": "HBeAg", "result": 50, "unit": "%"}, {"measurement": "change in COL4A1 expression", "setting": "COL4A1", "result": 0.65, "unit": "fold"}, {"measurement": "suppression of CD3 expression", "setting": "CD3", "result": "~66", "unit": "%"}, {"measurement": "change in IL18 expression", "setting": "IL18", "result": 0.89, "unit": "fold"}, {"measurement": "change in IL6 expression", "setting": "IL6", "result": 11.88, "unit": "fold"}, {"measurement": "suppression of MCP-1 expression", "setting": "MCP-1", "result": "around 50%"}, {"measurement": "suppression in NF-kB expression", "setting": "NF-kB", "result": 36, "unit": "%"}, {"measurement": "reduction in HCV RNA activity", "setting": "HCV RNA", "result": 95, "unit": "%"}, {"measurement": "suppression of IL-6 expression", "setting": "IL-6", "result": "~57", "unit": "%"}, {"measurement": "reduction of SARS-CoV-2 concentration", "setting": "SARS-CoV-2; 10 µM", "result": 91.20, "unit": "%"}, {"measurement": "reduction of SARS-CoV-2 concentration", "setting": "SARS-CoV-2; 20 µM", "result": 99.93, "unit": "%"}, {"measurement": "change in TGFB1 expression", "setting": "TGFB1", "result": 0.99, "unit": "fold"}, {"measurement": "reduction in the expression level of HBsAg", "setting": "HBsAg", "result": 40, "unit": "%"}, {"measurement": "enhancement in nuclear Nrf-2 expression", "setting": "Nrf-2", "result": 2, "unit": "times"}, {"measurement": "change in CXCL10 expression", "setting": "CXCL10; 10 µM", "result": 3.40, "unit": "fold"}, {"measurement": "change in CXCL10 expression", "setting": "CXCL10; 20 µM", "result": 1.01, "unit": "fold"}]}]}
